In series [1] the target is T1, E. coli MTAN (Escherichia coli, UniProt P0AF12).
T1 construct: consists of 232 amino acids belonging to E. coli MTAN and 10 residues from the N-terminal histidine fusion tag; histidine tag (N, cleaved yes); made in house
The following applies: cited from earlier work; for substrate activity: result in words.

For series [2] the following is noted: 9-deazapurine ring; cited from earlier work.
Series [3] addresses T1, E. coli MTAN. As to the kind of experiment: Slow-onset inhibition of E. coli MTAN by transition state analogues. The format is biochemical. The following applies: Kd 47 fM versus Km 4.3 μM.
Series [4] has as its target T1, E. coli MTAN. The note with it: overall / equilibrium dissociation constant; read-out: dissociation constant (Kd) following slow-onset inhibition, or Ki*; cited from earlier work.

Entries after “also recorded” stand apart in the source; their conditions may differ.

The source of these data is patent publication US8541567B2, “Transition state structure of 5′-methylthioadenosine/s-adenosylhomocysteine nucleosidases” (Albert Einstein College of Medicine of Yeshiva University, priority 2005, dated 2013).

T1 sequence (P0AF12 whole entry, the tested form may be a part): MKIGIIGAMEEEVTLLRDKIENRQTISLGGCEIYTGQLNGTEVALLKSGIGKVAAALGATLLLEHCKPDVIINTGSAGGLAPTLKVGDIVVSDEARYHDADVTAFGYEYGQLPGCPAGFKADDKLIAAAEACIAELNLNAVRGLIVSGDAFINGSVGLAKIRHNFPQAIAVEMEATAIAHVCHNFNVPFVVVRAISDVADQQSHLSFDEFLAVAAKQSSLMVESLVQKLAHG

With `CSC[C@H]1O[C@@H](n2cnc3c(N)ncnc32)C[C@@H]1O` [2′-deoxy-MTA], the catalytic activity retained in series [1] (relative to MTA) is recorded as 85%. In addition, the substrate activity result in series [1] was “good substrate”.
In the case of `CSC[C@@H]1C[C@@H](O)[C@H](n2cnc3c(N)ncnc32)O1` [3′-deoxy-MTA], in series [1], the substrate activity entry is reported as “is not; also recorded: not a substrate”.
One may read the pKa as the negative logarithm of the acid dissociation constant. For `Nc1ncnc2cc[nH]c12` [9-deazaadenine], the “pKa at N7” value in series [2] is recorded as more than 10.
For orientation: Km means the concentration of substrate that gives half-maximal velocity. Consider `Nc1ncnc2c1ncn2[C@@H]1O[C@H](CSCC[C@H](N)C(=O)O)[C@@H](O)[C@H]1O` [S-adenosylhomocysteine], for which the Km in series [1] (substrate S-adenosylhomocysteine) is 4.3 µM.
With `Nc1ncnc2c(CN3C[C@H](CSc4ccc(Cl)cc4)[C@@H](O)C3)c[nH]c12` [pC1PhT-DADMe-ImmA, (3R,4S)-4-(4-chlorophenylthiomethyl)-1-[(9-deazaadenin-9-yl]methyl)-3-hydroxypyrrolidine], in series [3], the “binds tighter than the substrate S-adenosylhomocysteine” value stood at 91 million.
In general, Kd refers to the equilibrium constant for the complex coming apart. Turning to “(1S)-1-(9-deazaadenin-9-yl)-1,4-dideoxy-1,4-imino-5-methylthio-D-ribitol [MT-ImmA]”, the Kd in series [4] was 0.077 nM.
